In US8648097B2, “Pyridylaminoacetic acid compound” (Ube Industries, Ltd., priority 2008, dated 2014) one finds Ki, EC50 and IC50 data, which are given here for 20 compounds.

Test [1] addresses T1, EP2 (Homo sapiens, UniProt P43116). The experiment in a line: Measurement of EP2 receptor binding action. The arrangement: expressed in transfected cells; host or cells: HEK293 cells (membrane fraction). How it is done:
Measurement of EP2 receptor binding action was carried out in compliance with the method of Abramovitz et al. (Biochimica et Biophysica Acta, 1483, 285 (2000)). […] The membrane fraction was recovered on glass fiber filter paper (GF/B, Whatmann) using a cell harvester (M30R, Brandel), and after washing with buffer solution (10 mM MES-KOH (pH 6.0), 10 mM MgCl2), radioactivity was measured with a liquid scintillation analyzer (2000CA, Packard). […] The dissociation constant (Kd) was calculated by Scatchard analysis. Furthermore, a Compound A shown in the table is a sodium salt of {3-[(4-tert-butylbenzyl)(pyridin-3-ylsulfonyl)aminomethyl]-phenoxy}acetic acid (CP-533,536), which is the compound of Example 14e of WO 99/19300A, and is a control compound having EP2 receptor binding action.

The target in test [2] is T1, EP2. Briefly: Measurement of EP2 agonist activity (cAMP in HEK293 cells). Type of test: cell-based. Particulars: amount of cAMP in HEK293 cells (ES-562-C, Euroscreen), 30 minutes. The arrangement: host or cells: HEK293 cells. The procedure: Measurement of EP2 agonist activity was carried out in compliance with the method of Wilson et al. (European Journal of Pharmacology, 501, 49 (2004)). HEK293 cells (ES-562-C, Euroscreen) were cultured in MEM medium containing 10% FBS and seeded at 2×10^4 cells per well of a 96-well plate. On the following day, the medium was replaced with serum-free MEM medium containing 3-isobutyl-1-methylxanthine (final concentration: 500 μM) and after culturing for 30 minutes, a test compound dissolved in dimethylsulfoxide was added followed by allowing to stand undisturbed in a carbon dioxide incubator. After 30 minutes, the amount of cAMP in the cells was measured with a cAMP Biotrak EIA System kit (GE Healthcare Sciences).

In test [3] the test system is isolated guinea pig trachea. Briefly: Isolated guinea pig trachea relaxation test. Particulars: 50% relaxation of 0.1 μM carbachol-induced contraction. How it is done: The tracheas were isolated from guinea pigs (Hartley, male, age 7 to 9 weeks, supplier: Nippon SLC) followed by cutting as rings containing cartilage. Trachea specimens were prepared by cutting the side opposite from the smooth muscle from the rings. The trachea specimens were suspended in Krebs solution containing 3 μM indomethacin while applying a load of 0.5 g, and changes in tension were measured through an FD pickup (TB-611T, Nippon Kohden). The trachea specimens were then warmed to 37° C. and perfused with a mixed gas consisting of 95% oxygen and 5% carbon dioxide. Next, after causing the trachea specimen to contract by adding 0.1 μM carbachol, a test compound dissolved in dimethylsulfoxide was cumulatively added starting at a low concentration to cause the trachea specimen to relax.

Where [4] appears, read: read-out: Ki Value of EP2 Receptor Binding Action.

The structures appear in SMILES notation. Counter-ions that a name gives are not always drawn. Like-named read-outs stand apart in the source and are kept apart here.

T1 sequence (P43116 whole entry): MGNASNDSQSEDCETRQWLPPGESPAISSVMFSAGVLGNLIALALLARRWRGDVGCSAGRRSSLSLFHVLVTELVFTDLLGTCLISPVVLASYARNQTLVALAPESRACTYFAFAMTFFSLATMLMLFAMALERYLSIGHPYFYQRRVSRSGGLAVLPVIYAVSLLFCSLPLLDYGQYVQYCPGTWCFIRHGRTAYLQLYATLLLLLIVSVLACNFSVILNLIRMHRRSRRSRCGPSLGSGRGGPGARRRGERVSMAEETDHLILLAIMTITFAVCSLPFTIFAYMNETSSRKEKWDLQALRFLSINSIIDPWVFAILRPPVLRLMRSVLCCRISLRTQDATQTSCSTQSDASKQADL

Regarding `O=C(O)CNc1cccc(CN(Cc2ccc(-c3ncccn3)cc2)S(=O)(=O)c2ccccn2)n1` [Example 18, (6-{(Pyridin-2-ylsulfonyl)[4-(pyrimidin-2-yl)benzyl]aminomethyl}pyridin-2-ylamino)-acetic acid hydrochloride], the Ki on EP2 [1] (setting [4]) was 9.2 nM. The same compound registered an EC50 at EP2 [2] of 5 nM. Consider `O=C(O)CNc1cccc(CN(Cc2ccc(-n3cccn3)cc2)S(=O)(=O)c2ccc(F)cc2)n1` [Example 26, (6-{(4-Fluorobenzenesulfonyl)[4-(pyrazol-1-yl)benzyl]aminomethyl}pyridin-2-ylamino)acetic acid], for which, at EP2 [2], the response was half-maximal at 0.78 nM (EC50). For the compound `O=C(O)CNc1cccc(CN(Cc2cc3ccccc3s2)S(=O)(=O)c2cccnc2)n1` [Example 13, {6-[(Benzo[b]thiophen-2-ylmethyl)(pyridin-3-ylsulfonyl)aminomethyl]pyridin-2-ylamino}acetic acid hydrochloride], the inhibition constant Ki at EP2 [1] (setting [4]) is 13 nM. For the same compound, it took 3.4 nM to reach a half-maximal effect on EP2 [2] (EC50). On to `O=C(O)CNc1cccc(CN(Cc2ccc(-c3nccs3)cc2)S(=O)(=O)c2ccccn2)n1` [Example 3, (6-{(Pyridin-2-ylsulfonyl)[4-(thiazol-2-yl)benzyl]aminomethyl}pyridin-2-ylamino)-acetic acid], for which the Ki at EP2 [1] (setting [4]) turned out to be 1.9 nM. Moreover, the midpoint of the response on EP2 [2], the EC50, lay at 0.45 nM. As to `O=C(O)CNc1cccc(CN(Cc2ccc(-c3ccccc3)cc2)S(=O)(=O)c2ccccn2)n1` [Example 17, {6-[(Biphenyl-4-ylmethyl)(pyridin-2-ylsulfonyl)aminomethyl]pyridin-2-ylamino}acetic acid hydrochloride], at EP2 [1] (setting [4]), the Ki came to 1.5 nM. The compound also registered a concentration for a half-maximal effect (EC50) on EP2 [2] of 1.8 nM. This compound showed a 50% inhibitory concentration (IC50) in test [3] (Cavia porcellus) of 2.6 nM. Compound `O=C(O)CNc1cccc(CN(Cc2ccc(-n3cccn3)cc2)S(=O)(=O)c2cccnc2)n1` [Example 7, (6-{[4-(Pyrazol-1-yl)benzyl](pyridin-3-ylsulfonyl)aminomethyl}pyridin-2-ylamino)-acetic acid hydrochloride] displayed an EC50 on EP2 [2] of 2.8 nM. Turning to `CC(C)(C)c1ccc(CN(Cc2cccc(OCC(=O)O)c2)S(=O)(=O)c2cccnc2)cc1` [Compound A, {3-[(4-tert-butylbenzyl)(pyridin-3-ylsulfonyl)aminomethyl]-phenoxy}acetic acid, reference compound], the IC50 in test [3] (Cavia porcellus) turned out to be 86 nM. That is a double-digit nanomolar value. Turning to `O=C(O)CNc1cccc(CN(Cc2cc3ccccc3o2)S(=O)(=O)c2cccnc2)n1` [Example 8, {6-[(Benzofuran-2-ylmethyl)(pyridin-3-ylsulfonyl)aminomethyl]pyridin-2-ylamino}-acetic acid hydrochloride], the EC50 on EP2 [2] was 5.6 nM. `O=C(O)CNc1cccc(CN(Cc2ccc(-c3nccs3)cc2)S(=O)(=O)c2cccnc2)n1` [Example 2, (6-{(Pyridin-3-ylsulfonyl)[4-(thiazol-2-yl)benzyl]aminomethyl}pyridin-2-ylamino)-acetic acid] displayed an IC50 in test [3] (Cavia porcellus) of 5.7 nM. In other words, the single-digit nanomolar range. `O=C(O)CNc1cccc(CN(Cc2ccc(-c3ccc(F)cc3)cc2)S(=O)(=O)c2cccnc2)n1` [Example 9, {6-[(4′-Fluorobiphenyl-4-ylmethyl)(pyridin-3-ylsulfonyl)aminomethyl]pyridin-2-ylamino}acetic acid hydrochloride]: the inhibition constant (Ki) at EP2 [1] (setting [4]) is 4.4 nM.

For the compound `O=C(O)CNc1cccc(CN(Cc2cc3ccc(Cl)cc3s2)S(=O)(=O)c2cccnc2)n1` [Example 12, {6-[(6-Chlorobenzo[b]thiophen-2-ylmethyl)(pyridin-3-ylsulfonyl)aminomethyl]pyridin-2-ylamino}acetic acid hydrochloride], the inhibition constant (Ki) at EP2 [1] (setting [4]) was 1.1 nM. At EP2 [2], this compound gave an EC50 of 0.49 nM. For the compound `O=C(O)CNc1cccc(CN(Cc2ccc(-c3cscn3)cc2)S(=O)(=O)c2ccccn2)n1` [Example 16, (6-{(Pyridin-2-ylsulfonyl)[4-(thiazol-4-yl)benzyl]aminomethyl}pyridin-2-ylamino)-acetic acid], the Ki at EP2 [1] (setting [4]) stood at 3.1 nM. For the same compound, the response at EP2 [2] was half-maximal at 0.62 nM (EC50). This compound displayed a 50% inhibitory concentration (IC50) in test [3] (Cavia porcellus) of 2.6 nM. In turn, `O=C(O)CNc1cccc(CN(Cc2ccc(-c3nc(C(F)(F)F)cs3)cc2)S(=O)(=O)c2ccccn2)n1` [Example 25, (6-{(Pyridin-2-ylsulfonyl)[4-(4-trifluoromethylthiazol-2-yl)benzyl]aminomethyl}-pyridin-2-ylamino)acetic acid] came in with an EC50 on EP2 [2] of 7.9 nM. Regarding `O=C(O)CNc1cccc(CN(Cc2ccc(-c3nccs3)cc2)S(=O)(=O)c2ccc(F)cc2)n1` [Example 4, (6-{(4-Fluorobenzenesulfonyl)[4-(thiazol-2-yl)benzyl]aminomethyl}pyridin-2-ylamino)acetic acid], the inhibition constant Ki at EP2 [1] ([3H]prostaglandin E2 10 nM, membrane fraction of HEK293 cells expressing human EP2 receptor, read-out: Ki Value of EP2 Receptor Binding Action) is 2.8 nM. Also, on EP2 [2], the response was half-maximal at 0.29 nM (EC50). The IC50 in test [3] came to 4.5 nM. Turning to `O=C(O)CNc1cccc(CN(Cc2ccc(-c3ccccn3)cc2)S(=O)(=O)c2cccnc2)n1` [Example 19, (6-{[4-(Pyridin-2-yl)benzyl](pyridin-3-ylsulfonyl)aminomethyl}pyridin-2-ylamino)-acetic acid], the midpoint of the response on EP2 [2], the EC50, lay at 2 nM. This lies in the single-digit nanomolar range. For the compound `COc1ccc2cc(CN(Cc3cccc(NCC(=O)O)n3)S(=O)(=O)c3cccnc3)sc2c1` [Example 15, {6-[(6-Methoxybenzo[b]thiophen-2-ylmethyl)(pyridin-3-ylsulfonyl)aminomethyl]-pyridin-2-ylamino}acetic acid hydrochloride], the Ki on EP2 [1] (setting [4]) is 9.4 nM. It took 0.96 nM to reach a half-maximal effect at EP2 [2] (EC50). Moreover, the 50% inhibitory concentration (IC50) in test [3] (Cavia porcellus) was found to be 2.6 nM.

As for `O=C(O)CNc1cccc(CN(Cc2ccc(-n3cccn3)cc2)S(=O)(=O)c2ccccn2)n1` [Example 21, (6-{[4-(Pyrazol-1-yl)benzyl](pyridin-2-ylsulfonyl)aminomethyl}pyridin-2-ylamino)-acetic acid], the concentration for a half-maximal effect (EC50) at EP2 [2] was determined as 1.1 nM. `O=C(O)CNc1cccc(CN(Cc2ccc(-c3ccccc3)cc2)S(=O)(=O)c2cccnc2)n1` [Example 6, {6-[(Biphenyl-4-ylmethyl)(pyridin-3-ylsulfonyl)aminomethyl]pyridin-2-ylamino}acetic acid hydrochloride] had a Ki on EP2 [1] of 3.8 nM. This compound also displayed an EC50 at EP2 [2] of 2 nM.

In the case of `O=C(O)CNc1cccc(CN(Cc2ccc(C3=NCCS3)cc2)S(=O)(=O)c2ccc(F)cc2)n1` [Example 5, (6-{[4-(4,5-Dihydrothiazol-2-yl)benzyl](4-fluorobenzenesulfonyl)aminomethyl}-pyridin-2-ylamino)acetic acid], the Ki at EP2 [1] (setting [4]) was 7 nM. On EP2 [2], this compound yielded an EC50 of 1.8 nM. Taken in the same sequence, the figures for `O=C(O)CNc1cccc(CN(Cc2ccc(-c3nccs3)cc2)S(=O)(=O)c2cccnc2)n1` [Example 11, (6-{(Pyridin-3-ylsulfonyl) [4-(thiazol-2-yl)benzyl]aminomethyl}pyridin-2-ylamino)-acetic acid trifluoroacetate] were 3.8 nM and 0.42 nM.

What is called Ki is a dissociation constant, usually derived from enzyme kinetics or from competition with a known ligand. The EC50 is the concentration that produces a half-maximal response. A lower EC50 goes with an effect from little substance. In general, IC50 refers to the midpoint of a concentration-inhibition curve.
